Assay results published in ChEMBL document CHEMBL1157583, “Novel irreversible epidermal growth factor receptor inhibitors by chemical modulation of the cysteine-trap portion” (J Med Chem, 2010).
pIC50: −log10 of the molar value. The source made the active and inactive calls. The calls are words filed in the database; no cut-off is given here.

Key:
[1] = target: T1, Epidermal growth factor receptor (Homo sapiens, UniProt P00533); assay: Inhibition of human recombinant EGFR expressed in insect cells by time-resolved fluorimetry; assay type: cell-based
T1 sequence (P00533 whole entry): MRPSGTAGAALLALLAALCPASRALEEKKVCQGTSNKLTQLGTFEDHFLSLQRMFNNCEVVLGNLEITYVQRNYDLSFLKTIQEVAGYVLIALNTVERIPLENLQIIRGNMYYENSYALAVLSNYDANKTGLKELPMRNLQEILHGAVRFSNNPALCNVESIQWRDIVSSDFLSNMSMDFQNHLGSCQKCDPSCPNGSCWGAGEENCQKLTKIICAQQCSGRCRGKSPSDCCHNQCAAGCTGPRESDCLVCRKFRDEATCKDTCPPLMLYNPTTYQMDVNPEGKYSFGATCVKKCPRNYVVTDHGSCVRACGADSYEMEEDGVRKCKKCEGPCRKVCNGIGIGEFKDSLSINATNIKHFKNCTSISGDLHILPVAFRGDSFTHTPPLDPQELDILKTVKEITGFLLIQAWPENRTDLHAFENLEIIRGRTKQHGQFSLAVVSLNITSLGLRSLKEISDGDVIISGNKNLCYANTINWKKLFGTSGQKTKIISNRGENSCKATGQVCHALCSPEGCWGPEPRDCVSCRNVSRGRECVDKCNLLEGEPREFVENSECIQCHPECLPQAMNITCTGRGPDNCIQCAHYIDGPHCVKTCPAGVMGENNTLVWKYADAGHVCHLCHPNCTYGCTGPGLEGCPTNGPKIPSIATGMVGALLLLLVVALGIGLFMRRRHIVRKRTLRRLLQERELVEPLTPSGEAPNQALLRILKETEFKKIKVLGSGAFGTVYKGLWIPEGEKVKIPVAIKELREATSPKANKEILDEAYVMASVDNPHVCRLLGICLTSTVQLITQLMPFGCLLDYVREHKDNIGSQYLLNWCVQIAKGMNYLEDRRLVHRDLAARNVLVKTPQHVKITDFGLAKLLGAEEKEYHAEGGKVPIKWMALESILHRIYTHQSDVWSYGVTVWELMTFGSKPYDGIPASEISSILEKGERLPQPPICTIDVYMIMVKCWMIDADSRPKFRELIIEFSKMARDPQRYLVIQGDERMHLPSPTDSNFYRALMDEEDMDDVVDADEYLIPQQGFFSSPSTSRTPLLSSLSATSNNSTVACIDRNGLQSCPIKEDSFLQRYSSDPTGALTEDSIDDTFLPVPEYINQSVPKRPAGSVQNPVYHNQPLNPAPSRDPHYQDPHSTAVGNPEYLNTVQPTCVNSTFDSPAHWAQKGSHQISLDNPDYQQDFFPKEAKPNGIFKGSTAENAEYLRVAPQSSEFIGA

[2] = target: T1, Epidermal growth factor receptor; settings: A-431, at 1 µM
Description: Inhibition of EGFR autophosphorylation in human A431 cells at 1 uM after 1 hr by Western blot

[3] = target: T1, Epidermal growth factor receptor; settings: A-431, at 1 µM; remark: listed apart in the source
Description: Inhibition of EGFR autophosphorylation in human A431 cells at 1 uM after 8 hrs by Western blot

[4] = system: A-431; assay: Antiproliferative activity against human A431 cells assessed as viable cells at 10 uM; assay type: functional; settings: read-out: Activity
[5] = system: NCI-H1975; assay: Antiproliferative activity against human NCI-H1975 cells after 72 hrs by MTT assay; assay type: functional, cell-based; settings: NCI-H1975, 72 h
[6] = target: T1, Epidermal growth factor receptor; assay: Inhibition of EGFR autophosphorylation in human A431 cells after 8 hrs by Western blot; assay type: cell-based, A-431
[7] = system: NCI-H1975; assay: Cytotoxicity against human NCI-H1975 cells assessed as cell death at 5 uM after 72 hrs by propidium iodide/Hoechst staining based fluorescence microscopy; assay type: functional
[8] = target: Receptor tyrosine-protein kinase erbB-2 (Homo sapiens) (UniProt P04626); assay: Inhibition of ERBB2 autophosphorylation in human NCI-H1975 cells by Western blot; assay type: cell-based
Chain of Receptor tyrosine-protein kinase erbB-2 (Homo sapiens) (P04626 whole entry): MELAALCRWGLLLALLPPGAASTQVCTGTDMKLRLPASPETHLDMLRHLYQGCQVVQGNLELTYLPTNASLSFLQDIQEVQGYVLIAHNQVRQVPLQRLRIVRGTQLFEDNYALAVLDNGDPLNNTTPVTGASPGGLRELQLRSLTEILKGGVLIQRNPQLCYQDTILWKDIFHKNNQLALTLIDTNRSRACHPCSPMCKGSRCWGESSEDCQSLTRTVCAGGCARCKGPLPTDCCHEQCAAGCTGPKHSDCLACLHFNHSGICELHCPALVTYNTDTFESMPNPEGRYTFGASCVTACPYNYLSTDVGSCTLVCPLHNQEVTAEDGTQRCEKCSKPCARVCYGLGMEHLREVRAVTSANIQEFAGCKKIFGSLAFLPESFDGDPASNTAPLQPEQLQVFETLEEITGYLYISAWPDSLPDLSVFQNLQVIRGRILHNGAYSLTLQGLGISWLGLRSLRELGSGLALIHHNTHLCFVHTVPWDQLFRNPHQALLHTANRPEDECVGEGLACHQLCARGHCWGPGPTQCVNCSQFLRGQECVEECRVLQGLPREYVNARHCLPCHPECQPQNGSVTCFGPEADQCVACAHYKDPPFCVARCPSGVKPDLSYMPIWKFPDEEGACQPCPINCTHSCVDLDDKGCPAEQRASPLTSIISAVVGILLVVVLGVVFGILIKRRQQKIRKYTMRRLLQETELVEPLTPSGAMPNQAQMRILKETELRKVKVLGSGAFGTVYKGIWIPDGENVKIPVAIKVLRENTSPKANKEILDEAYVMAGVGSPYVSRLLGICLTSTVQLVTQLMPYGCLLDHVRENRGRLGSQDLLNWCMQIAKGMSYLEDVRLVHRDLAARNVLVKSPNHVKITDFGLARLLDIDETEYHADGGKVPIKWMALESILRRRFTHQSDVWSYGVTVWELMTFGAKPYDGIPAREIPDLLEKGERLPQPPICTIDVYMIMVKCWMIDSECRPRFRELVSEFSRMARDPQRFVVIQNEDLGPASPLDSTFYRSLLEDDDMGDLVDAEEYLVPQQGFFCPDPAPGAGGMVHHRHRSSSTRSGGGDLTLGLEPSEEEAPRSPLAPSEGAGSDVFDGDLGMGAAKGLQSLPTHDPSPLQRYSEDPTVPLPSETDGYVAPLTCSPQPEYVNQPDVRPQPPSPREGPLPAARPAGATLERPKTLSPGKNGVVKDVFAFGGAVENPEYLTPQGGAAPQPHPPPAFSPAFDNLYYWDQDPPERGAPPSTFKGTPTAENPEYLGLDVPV

[9] = system: SW-620; assay: Cytotoxicity against human SW620 cells after 72 hrs by MTT assay; assay type: ADME, cell-based; settings: SW-620, 72 h
[10] = target: T1, Epidermal growth factor receptor; assay: Inhibition of EGFR autophosphorylation in human A431 cells after 1 hr by Western blot; assay type: cell-based, A-431
[11] = system: SW-620; assay: Cytotoxicity against human SW620 cells at 10 uM after 72 hrs by MTT assay; assay type: cell-based; settings: sw-620, 72 h
[12] = system: NCI-H1975; assay: Induction of apoptosis in human NCI-H1975 cells assessed as activation of caspase-3 at 5 uM after 2 days by Western blot; assay type: functional, cell-based

Row | SMILES | pIC50 [1] | inhibition [2] | inhibition [3] | further results
1 | O=C(Cn1sc2ccccc2c1=O)Nc1ccc2ncnc(Nc3cccc(Br)c3)c2c1 | 9.07 | 69% | 30.7% | –
2 | O=C(COc1ccccc1)Nc1ccc2ccccc2c1 | – | 0% | 0% | viability at 10 µM [4]: < 10%
3 | CCOC(=O)[C@@H]1O[C@H]1C(=O)Nc1ccc2ccccc2c1 | – | 0% | 0% | viability at 10 µM [4]: < 10%
4 | CC(C)c1nsc(C(=O)Nc2ccc3ncnc(Nc4cccc(Br)c4)c3c2)n1 | 6.89 | 82.3% | 66.9% | –
5 | O=C(CNC(=O)Oc1ccccc1)Nc1ccc2ncnc(Nc3cccc(Br)c3)c2c1 | 9.43 | 95.2% | 79.9% | –
6 | O=C(Nc1ccc2ncnc(Nc3cccc(Br)c3)c2c1)[C@@H]1O[C@H]1CN1CCCCC1 | 8.91 | 99.4% | 96.3% | pIC50 [5]: 5.76; pIC50 [6]: 7.36; Activity [7]: 25%; inhibition [8]: Dose-dependent effect; pIC50 [9]: < 5.00; pIC50 [10]: 8.15; Activity [11]: < 50%
7 | Nc1ccc2ncnc(Nc3cccc(Br)c3)c2c1 | – | 98.5% | 0% | –
8 | C=CC(=O)Nc1ccc2ncnc(Nc3cccc(Br)c3)c2c1 | – | – | – | pIC50 [9]: 5.08
9 | O=C(COc1ccc(F)cc1)Nc1ccc2ncnc(Nc3cccc(Br)c3)c2c1 | 8.07 | 97.4% | 77.6% | pIC50 [5]: 5.11; pIC50 [6]: 6.54; pIC50 [10]: 7.12
10 | COc1cc2ncnc(Nc3ccc(F)c(Cl)c3)c2cc1OCCCN1CCOCC1 | – | – | – | Activity [12]: Active
